Source: ChEMBL document CHEMBL4507256 (2021)

Tests used:
[1] = molecular target: Vascular endothelial growth factor receptor 2 (Homo sapiens) (UniProt P35968); settings: Compound concentration 1000.0 nM
[2] = molecular target: Atypical kinase COQ8B, mitochondrial (Homo sapiens) (UniProt Q96D53); settings: Compound concentration 1000.0 nM
[3] = molecular target: Muscarinic acetylcholine receptor M3 (Homo sapiens) (UniProt P20309); settings: Compound concentration 10.0 uM
[4] = molecular target: Homeodomain-interacting protein kinase 3 (Homo sapiens) (UniProt Q9H422); settings: Compound concentration 1000.0 nM
[5] = molecular target: Calcium/calmodulin-dependent protein kinase type 1B (Homo sapiens) (UniProt Q6P2M8); settings: Compound concentration 1000.0 nM
[6] = molecular target: Hepatocyte growth factor receptor (Homo sapiens) (UniProt P08581); settings: Compound concentration 1000.0 nM
[7] = system: Receptor-type tyrosine-protein kinase FLT3 (Homo sapiens), P36888 [K663Q]; settings: Compound concentration 1000.0 nM
[8] = molecular target: Phosphatidylinositol 4-phosphate 3-kinase C2 domain-containing subunit beta (Homo sapiens) (UniProt O00750); settings: Compound concentration 1000.0 nM
[9] = molecular target: Cyclin-G-associated kinase (Homo sapiens) (UniProt O14976); settings: Compound concentration 1000.0 nM
[10] = molecular target: SRSF protein kinase 2 (Homo sapiens) (UniProt P78362); settings: Compound concentration 1000.0 nM
[11] = molecular target: Phosphatidylinositol 4-phosphate 5-kinase type-1 alpha (Homo sapiens) (UniProt Q99755); settings: Compound concentration 1000.0 nM
Chain of Phosphatidylinositol 4-phosphate 5-kinase type-1 alpha (Homo sapiens) (Q99755 whole entry): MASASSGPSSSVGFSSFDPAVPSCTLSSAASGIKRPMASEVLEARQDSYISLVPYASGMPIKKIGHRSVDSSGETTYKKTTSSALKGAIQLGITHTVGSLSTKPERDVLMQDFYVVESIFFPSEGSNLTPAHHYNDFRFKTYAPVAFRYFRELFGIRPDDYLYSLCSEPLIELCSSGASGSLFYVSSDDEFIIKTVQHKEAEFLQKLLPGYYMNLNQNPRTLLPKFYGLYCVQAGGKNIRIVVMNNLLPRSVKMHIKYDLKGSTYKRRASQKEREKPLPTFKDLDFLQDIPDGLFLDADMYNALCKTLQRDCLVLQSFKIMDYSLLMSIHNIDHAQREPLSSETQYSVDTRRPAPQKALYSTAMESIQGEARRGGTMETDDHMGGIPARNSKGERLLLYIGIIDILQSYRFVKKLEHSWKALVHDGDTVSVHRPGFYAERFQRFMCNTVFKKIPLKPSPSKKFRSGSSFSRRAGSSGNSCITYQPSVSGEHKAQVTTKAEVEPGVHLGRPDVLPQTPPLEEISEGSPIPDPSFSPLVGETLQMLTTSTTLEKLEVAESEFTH

[12] = molecular target: 5-hydroxytryptamine receptor 1D (Homo sapiens) (UniProt P28221); settings: Compound concentration 10.0 uM
[13] = molecular target: MAP kinase-activated protein kinase 5 (Homo sapiens) (UniProt Q8IW41); settings: Compound concentration 1000.0 nM
[14] = molecular target: Uncharacterized serine/threonine-protein kinase SBK3 (Homo sapiens) (UniProt P0C264); settings: Compound concentration 1000.0 nM
Chain of Uncharacterized serine/threonine-protein kinase SBK3 (Homo sapiens) (P0C264 whole entry): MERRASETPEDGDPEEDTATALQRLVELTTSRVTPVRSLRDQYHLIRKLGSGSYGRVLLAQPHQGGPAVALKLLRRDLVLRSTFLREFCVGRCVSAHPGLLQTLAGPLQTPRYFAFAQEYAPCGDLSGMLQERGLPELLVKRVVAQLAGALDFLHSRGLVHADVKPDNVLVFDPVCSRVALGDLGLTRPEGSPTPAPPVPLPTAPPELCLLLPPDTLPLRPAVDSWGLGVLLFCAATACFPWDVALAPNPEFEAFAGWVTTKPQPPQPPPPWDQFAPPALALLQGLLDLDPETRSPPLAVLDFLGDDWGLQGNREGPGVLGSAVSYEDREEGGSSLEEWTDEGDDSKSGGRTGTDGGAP

[15] = molecular target: Cyclin-dependent kinase 11A (Homo sapiens) (UniProt Q9UQ88); settings: Compound concentration 1000.0 nM
[16] = system: Leucine-rich repeat serine/threonine-protein kinase 2 (Homo sapiens), Q5S007 [G2019S]; settings: Compound concentration 1000.0 nM
[17] = system: Mast/stem cell growth factor receptor Kit (Homo sapiens), P10721 [V559D]; settings: Compound concentration 1000.0 nM
Chain of Mast/stem cell growth factor receptor Kit (Homo sapiens), P10721 [V559D] (P10721 whole entry V559D): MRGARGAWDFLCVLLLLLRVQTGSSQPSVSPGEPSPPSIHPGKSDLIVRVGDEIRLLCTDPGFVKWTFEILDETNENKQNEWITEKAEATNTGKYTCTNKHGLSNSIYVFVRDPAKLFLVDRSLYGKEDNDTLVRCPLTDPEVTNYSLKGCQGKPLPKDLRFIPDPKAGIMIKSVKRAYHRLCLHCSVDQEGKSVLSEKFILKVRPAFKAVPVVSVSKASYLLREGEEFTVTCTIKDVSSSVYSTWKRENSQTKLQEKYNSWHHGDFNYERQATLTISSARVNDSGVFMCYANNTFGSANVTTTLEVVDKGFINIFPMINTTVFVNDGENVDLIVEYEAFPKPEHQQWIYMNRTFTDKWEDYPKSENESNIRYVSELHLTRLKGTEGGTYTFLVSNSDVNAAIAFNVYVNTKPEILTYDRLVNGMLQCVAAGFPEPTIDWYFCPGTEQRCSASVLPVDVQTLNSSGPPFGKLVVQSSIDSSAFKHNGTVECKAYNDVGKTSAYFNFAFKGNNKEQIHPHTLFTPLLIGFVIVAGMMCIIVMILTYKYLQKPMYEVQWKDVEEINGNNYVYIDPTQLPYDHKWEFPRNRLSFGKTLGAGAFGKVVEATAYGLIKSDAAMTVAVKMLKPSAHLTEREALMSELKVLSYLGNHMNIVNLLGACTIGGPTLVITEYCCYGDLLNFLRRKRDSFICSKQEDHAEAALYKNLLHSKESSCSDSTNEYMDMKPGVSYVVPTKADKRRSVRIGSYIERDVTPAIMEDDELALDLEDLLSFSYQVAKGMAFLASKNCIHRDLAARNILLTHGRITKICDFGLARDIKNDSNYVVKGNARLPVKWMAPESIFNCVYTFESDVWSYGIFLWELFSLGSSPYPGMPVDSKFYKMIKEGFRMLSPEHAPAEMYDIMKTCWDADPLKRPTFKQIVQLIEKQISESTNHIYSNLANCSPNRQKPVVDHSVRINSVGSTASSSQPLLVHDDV

[18] = molecular target: Ephrin type-A receptor 3 (Homo sapiens) (UniProt P29320); settings: Compound concentration 1000.0 nM
[19] = molecular target: Mitogen-activated protein kinase kinase kinase 4 (Homo sapiens) (UniProt Q9Y6R4); settings: Compound concentration 1000.0 nM
[20] = molecular target: Tyrosine-protein kinase JAK2 (Homo sapiens) (UniProt O60674); settings: Compound concentration 1000.0 nM
[21] = molecular target: Homeodomain-interacting protein kinase 1 (Homo sapiens) (UniProt Q86Z02); settings: Compound concentration 1000.0 nM
[22] = molecular target: Interferon-induced, double-stranded RNA-activated protein kinase (Homo sapiens) (UniProt P19525); settings: Compound concentration 1000.0 nM
[23] = system: Phosphatidylinositol 4,5-bisphosphate 3-kinase catalytic subunit alpha isoform (Homo sapiens), P42336 [E542K]; settings: Compound concentration 1000.0 nM
[24] = molecular target: Cyclin-dependent kinase 4 (Homo sapiens) (UniProt P11802); settings: Compound concentration 1000.0 nM
Chain of Cyclin-dependent kinase 4 (Homo sapiens) (P11802 whole entry): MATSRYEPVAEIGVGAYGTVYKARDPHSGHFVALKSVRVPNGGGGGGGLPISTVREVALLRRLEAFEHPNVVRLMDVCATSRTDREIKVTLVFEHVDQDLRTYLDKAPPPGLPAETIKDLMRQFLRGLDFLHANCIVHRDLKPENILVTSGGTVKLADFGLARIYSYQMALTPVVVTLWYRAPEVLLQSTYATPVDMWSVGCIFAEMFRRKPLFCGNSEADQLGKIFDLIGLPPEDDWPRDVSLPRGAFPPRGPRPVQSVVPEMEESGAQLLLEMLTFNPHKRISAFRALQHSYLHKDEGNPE

[25] = molecular target: Serine/threonine-protein kinase PLK2 (Homo sapiens) (UniProt Q9NYY3); settings: Compound concentration 1000.0 nM
[26] = molecular target: Dual specificity tyrosine-phosphorylation-regulated kinase 1B (Homo sapiens) (UniProt Q9Y463); settings: Compound concentration 1000.0 nM
[27] = molecular target: T1, 5-hydroxytryptamine receptor 2C (Homo sapiens) (UniProt P28335); settings: Compound concentration 10.0 uM
T1 sequence (whole entry): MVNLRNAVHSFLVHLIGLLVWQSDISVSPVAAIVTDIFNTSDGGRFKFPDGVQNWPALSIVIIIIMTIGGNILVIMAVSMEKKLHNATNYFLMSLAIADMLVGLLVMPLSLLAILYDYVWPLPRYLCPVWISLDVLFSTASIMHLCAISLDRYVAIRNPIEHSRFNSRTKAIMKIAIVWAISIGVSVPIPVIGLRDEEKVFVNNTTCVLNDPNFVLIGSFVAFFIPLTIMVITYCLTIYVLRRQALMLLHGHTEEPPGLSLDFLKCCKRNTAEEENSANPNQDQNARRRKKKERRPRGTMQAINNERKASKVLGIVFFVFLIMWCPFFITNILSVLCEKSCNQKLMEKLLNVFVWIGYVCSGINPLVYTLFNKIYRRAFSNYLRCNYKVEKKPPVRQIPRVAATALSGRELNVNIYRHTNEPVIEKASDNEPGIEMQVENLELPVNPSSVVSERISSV

[28] = molecular target: Tyrosine-protein kinase FRK (Homo sapiens) (UniProt P42685); settings: Compound concentration 1000.0 nM
Chain of Tyrosine-protein kinase FRK (Homo sapiens) (P42685 whole entry): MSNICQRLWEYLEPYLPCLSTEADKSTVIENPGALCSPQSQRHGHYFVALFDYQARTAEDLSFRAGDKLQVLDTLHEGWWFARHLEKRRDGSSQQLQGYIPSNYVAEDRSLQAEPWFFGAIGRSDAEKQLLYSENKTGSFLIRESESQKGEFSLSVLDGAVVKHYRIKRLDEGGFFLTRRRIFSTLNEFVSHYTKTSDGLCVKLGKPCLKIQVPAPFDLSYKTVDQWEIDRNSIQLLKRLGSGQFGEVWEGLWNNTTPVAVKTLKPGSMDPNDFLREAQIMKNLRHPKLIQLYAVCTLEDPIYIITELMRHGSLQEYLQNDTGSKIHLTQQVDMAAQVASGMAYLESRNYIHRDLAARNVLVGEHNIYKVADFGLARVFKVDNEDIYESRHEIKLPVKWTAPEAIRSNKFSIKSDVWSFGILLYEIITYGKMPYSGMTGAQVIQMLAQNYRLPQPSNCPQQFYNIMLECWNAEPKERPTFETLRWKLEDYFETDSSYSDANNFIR

[29] = molecular target: Serine/threonine-protein kinase ULK3 (Homo sapiens) (UniProt Q6PHR2); settings: Compound concentration 1000.0 nM
[30] = molecular target: Ribosomal protein S6 kinase alpha-2 (Homo sapiens) (UniProt Q15349); settings: Compound concentration 1000.0 nM
[31] = molecular target: Cyclin-dependent kinase 7 (Homo sapiens) (UniProt P50613); settings: Compound concentration 1000.0 nM
Chain of Cyclin-dependent kinase 7 (Homo sapiens) (P50613 whole entry): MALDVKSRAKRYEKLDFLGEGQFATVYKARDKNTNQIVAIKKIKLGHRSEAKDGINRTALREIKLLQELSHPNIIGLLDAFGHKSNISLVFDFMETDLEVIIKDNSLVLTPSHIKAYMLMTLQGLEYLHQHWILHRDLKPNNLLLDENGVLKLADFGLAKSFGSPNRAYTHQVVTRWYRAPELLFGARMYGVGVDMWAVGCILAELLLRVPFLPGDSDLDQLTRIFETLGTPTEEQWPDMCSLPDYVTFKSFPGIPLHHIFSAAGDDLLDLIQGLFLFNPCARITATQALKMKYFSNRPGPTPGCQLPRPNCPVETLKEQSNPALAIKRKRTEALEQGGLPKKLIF

[32] = molecular target: Dual specificity protein kinase CLK1 (Homo sapiens) (UniProt P49759); settings: Compound concentration 1000.0 nM
Chain of Dual specificity protein kinase CLK1 (Homo sapiens) (P49759 whole entry, looked up): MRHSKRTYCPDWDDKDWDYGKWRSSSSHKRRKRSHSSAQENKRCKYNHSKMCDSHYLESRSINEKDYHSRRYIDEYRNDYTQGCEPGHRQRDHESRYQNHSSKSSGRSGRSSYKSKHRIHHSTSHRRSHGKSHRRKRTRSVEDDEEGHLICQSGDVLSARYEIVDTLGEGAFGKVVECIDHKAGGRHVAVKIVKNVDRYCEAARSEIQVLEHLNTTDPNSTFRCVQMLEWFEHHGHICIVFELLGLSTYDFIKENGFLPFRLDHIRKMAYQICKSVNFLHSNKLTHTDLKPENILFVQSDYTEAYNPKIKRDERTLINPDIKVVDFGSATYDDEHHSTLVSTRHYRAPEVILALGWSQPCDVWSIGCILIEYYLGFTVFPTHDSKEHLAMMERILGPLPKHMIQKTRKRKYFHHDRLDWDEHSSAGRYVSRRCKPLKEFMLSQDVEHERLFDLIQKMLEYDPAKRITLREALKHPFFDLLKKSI

[33] = molecular target: Cyclin-dependent kinase 14 (Homo sapiens) (UniProt O94921); settings: Compound concentration 1000.0 nM
[34] = molecular target: Bone morphogenetic protein receptor type-2 (Homo sapiens) (UniProt Q13873); settings: Compound concentration 1000.0 nM
[35] = molecular target: Angiopoietin-1 receptor (Homo sapiens) (UniProt Q02763); settings: Compound concentration 1000.0 nM
[36] = molecular target: Tyrosine-protein kinase CSK (Homo sapiens) (UniProt P41240); settings: Compound concentration 1000.0 nM
Chain of Tyrosine-protein kinase CSK (Homo sapiens) (P41240 2-450 limits assumed): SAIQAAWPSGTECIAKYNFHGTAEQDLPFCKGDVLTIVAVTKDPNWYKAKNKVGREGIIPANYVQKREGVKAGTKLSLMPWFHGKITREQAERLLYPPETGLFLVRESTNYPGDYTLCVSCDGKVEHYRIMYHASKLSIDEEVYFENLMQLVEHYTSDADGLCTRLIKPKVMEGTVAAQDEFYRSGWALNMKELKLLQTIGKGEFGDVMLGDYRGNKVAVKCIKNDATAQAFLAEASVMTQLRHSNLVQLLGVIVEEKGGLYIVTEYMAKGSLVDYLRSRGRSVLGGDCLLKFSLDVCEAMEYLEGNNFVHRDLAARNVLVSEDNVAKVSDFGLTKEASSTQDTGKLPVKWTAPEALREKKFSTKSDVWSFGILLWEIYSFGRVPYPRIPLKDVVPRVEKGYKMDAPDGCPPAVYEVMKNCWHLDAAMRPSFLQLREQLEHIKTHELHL

[37] = molecular target: Macrophage colony-stimulating factor 1 receptor (Homo sapiens) (UniProt P07333); settings: Compound concentration 1000.0 nM
[38] = molecular target: Cyclin-dependent kinase-like 3 (Homo sapiens) (UniProt Q8IVW4); settings: Compound concentration 1000.0 nM
[39] = molecular target: Serine/threonine-protein kinase 17B (Homo sapiens) (UniProt O94768); settings: Compound concentration 1000.0 nM
Chain of Serine/threonine-protein kinase 17B (Homo sapiens) (O94768 whole entry): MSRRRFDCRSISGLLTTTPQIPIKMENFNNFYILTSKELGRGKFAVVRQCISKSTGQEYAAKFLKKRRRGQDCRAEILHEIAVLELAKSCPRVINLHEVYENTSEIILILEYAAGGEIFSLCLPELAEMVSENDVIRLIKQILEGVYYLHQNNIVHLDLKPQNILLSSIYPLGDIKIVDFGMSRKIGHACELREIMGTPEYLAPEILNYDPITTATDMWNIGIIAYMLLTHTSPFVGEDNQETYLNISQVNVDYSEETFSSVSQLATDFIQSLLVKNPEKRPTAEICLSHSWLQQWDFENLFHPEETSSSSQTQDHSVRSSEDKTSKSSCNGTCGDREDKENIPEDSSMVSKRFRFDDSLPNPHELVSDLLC

Chain of Muscarinic acetylcholine receptor M3 (Homo sapiens) (P20309 whole entry, looked up): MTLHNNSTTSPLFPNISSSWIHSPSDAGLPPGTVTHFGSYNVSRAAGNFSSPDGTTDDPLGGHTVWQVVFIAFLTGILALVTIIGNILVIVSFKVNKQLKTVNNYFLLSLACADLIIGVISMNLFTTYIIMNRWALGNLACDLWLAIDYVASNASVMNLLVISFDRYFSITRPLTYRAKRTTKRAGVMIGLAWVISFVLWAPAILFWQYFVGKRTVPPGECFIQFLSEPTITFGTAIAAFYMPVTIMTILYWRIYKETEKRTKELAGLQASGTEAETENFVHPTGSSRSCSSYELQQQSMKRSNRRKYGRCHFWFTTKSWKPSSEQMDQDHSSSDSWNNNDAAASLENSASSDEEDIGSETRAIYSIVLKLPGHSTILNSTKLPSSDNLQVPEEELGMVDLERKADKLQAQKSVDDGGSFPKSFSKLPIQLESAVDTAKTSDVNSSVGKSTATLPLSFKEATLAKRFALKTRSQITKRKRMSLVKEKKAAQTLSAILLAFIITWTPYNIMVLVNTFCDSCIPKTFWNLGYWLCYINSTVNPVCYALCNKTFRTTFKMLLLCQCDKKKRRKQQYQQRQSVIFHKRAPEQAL

CCC(=N\O)/C(C)=C/c1ccc(F)c(C)c1 [A-226]
inactive: residual activity [1] 100% | residual activity [2] 83% | inhibition [3] -5.75% | residual activity [4] 100% | residual activity [5] 100% | residual activity [6] 100% | residual activity [7] 100% | residual activity [8] 55% | residual activity [9] 96% | residual activity [10] 97% | residual activity [11] 100% | inhibition [12] 4.54% | residual activity [13] 100% | residual activity [14] 100% | residual activity [15] 69% | residual activity [16] 100% | residual activity [17] 100% | residual activity [18] 99% | residual activity [19] 72% | residual activity [20] 100% | residual activity [21] 97% | residual activity [22] 100% | residual activity [23] 54% | residual activity [24] 100% | residual activity [25] 100% | residual activity [26] 100% | inhibition [27] 27% | residual activity [28] 80% | residual activity [29] 100% | residual activity [30] 100% | residual activity [31] 93% | residual activity [32] 100% | residual activity [33] 92% | residual activity [34] 100% | residual activity [35] 85% | residual activity [36] 96% | residual activity [37] 98% | residual activity [38] 86% | residual activity [39] 100%

CCC(=N\O)/C(C)=C/c1ccc(F)cc1 [A-079]
inactive: residual activity [1] 81% | residual activity [2] 84% | inhibition [3] -6.83% | residual activity [4] 78% | residual activity [5] 82% | residual activity [6] 88% | residual activity [7] 100% | residual activity [8] 92% | residual activity [9] 99% | residual activity [10] 75% | residual activity [11] 97% | inhibition [12] 13.9% | residual activity [13] 91% | residual activity [14] 100% | residual activity [15] 94% | residual activity [16] 100% | residual activity [17] 100% | residual activity [18] 100% | residual activity [19] 99% | residual activity [20] 71% | residual activity [21] 80% | residual activity [22] 100% | residual activity [23] 100% | residual activity [24] 74% | residual activity [25] 78% | residual activity [26] 57% | inhibition [27] 32.7% | residual activity [28] 100% | residual activity [29] 74% | residual activity [30] 85% | residual activity [31] 60% | residual activity [32] 79% | residual activity [33] 91% | residual activity [34] 81% | residual activity [35] 89% | residual activity [36] 100% | residual activity [37] 100% | residual activity [38] 80% | residual activity [39] 74%
